This is an account of results in a melting point compilation (Tetko et al.; mined from patent text by program, amines drawn as free bases though some values may be those of a salt).

By melting point is commonly meant the temperature of the solid-liquid transition. As for `COC(=O)CSC(CCCc1ccccc1)c1ccc(OCc2ccc3ccc(F)cc3n2)cc1` (centres undefined), the melting point fell in the range of 64 to 66 °C.

As for `CC(C)(O)c1ccc(-c2cnc3[nH]c(=O)n(CC4CCCCC4)c3n2)cn1`, the melting point was > 250 °C. Consider `Cc1oc(-c2ccccc2)nc1CCOc1ccc(C[C@H](NCc2ccc(F)cc2)C(=O)O)cc1`, for which the melting point lay in the range of 184 to 186 °C.

Consider `C#CCOC(=O)C=Cc1csc(Cl)c1Cl`, for which the melting point fell in the range of 84 to 86 °C. In the case of `Cc1cc(Oc2ccsc2C(F)(F)F)nc(-c2ccc(C(F)(F)F)cc2)c1`, the melting point is 52.5 to 55.5 °C. As to `O=C(CC1CC2CCC1C2)Nc1ccccc1C(c1ccc(O)cc1)c1ccc(O)cc1` (centres undefined), the melting point was in the range of 125 to 127 °C. `CCc1nc2c(o1)C(=O)C=C(Nc1ccccc1)C2=O` displayed a melting point of 200 °C. Compound `Nc1cc(C(F)(F)F)cc2nc3c4ccccc4c4ccccc4c3nc12` came in with a melting point of 194 to 195 °C.

`CO[C@H]1O[C@@H](C)[C@@H]2[C@H](O)[C@H]3CCCC[C@@H]3C[C@H]12` had a melting point of 123 to 124 °C. As to `O=C(NC/C=C\COc1cc(CN2CCCCC2)ccn1)c1ccc(Cl)s1`, the melting point was in the range of 75 to 77 °C. For the compound `c1ccc2c(c1)CN(Cc1nc3ccccc3[nH]1)C2`, the melting point lay within 172 to 174 °C. As for `COc1ccc(N2C(=O)NC3(CCOCC3)C2=O)cc1`, the figure is 253 to 254 °C; as for `COc1cc(OC)c2c(C)c(C(C)=O)c(=O)oc2c1`, 166 to 167 °C.

Compound `C#Cc1cc(-c2cccs2)c(OC)cc1OC` returned a melting point of 141 to 142 °C. `O=C(NCCO)c1cccc(-c2cccc3cn(Cc4cccc(C(F)(F)F)c4)nc23)c1` displayed a melting point of 136 to 137 °C.

For the compound `CCCOc1c(I)cc(C(=O)CCC(=O)c2cc(OC)c(OC)c(OC)c2)cc1OC`, the melting point was in the range of 120 to 121 °C. As for `CC(C)CC(=O)Nc1c(C(=O)c2cc(CO)co2)[nH]c2cc(Cl)ccc12`, the melting point lay in the range of 200 to 201 °C. As for `C[C@]12CCC(=O)N[C@@H]1CCc1cc(-c3cccc4ccccc34)ccc12`, the figure is 247 to 248 °C; as for `CCOC(=O)c1cncc(C(=O)NC(C)c2ccccc2)c1` (centres undefined), 159 to 161 °C; as for `CS(=O)(=O)N1CCN([C@](O)(CNC(=O)c2ccc(OCC#CCO)cc2)C(N)=O)CC1`, 162 °C. For `O=C(O)c1ccc(Cl)cc1Oc1cccc(C(F)(F)F)c1`, the melting point amounted to 146 °C. In turn, `O=C(NO)[C@H]1CN(S(=O)(=O)c2ccc(-c3ccon3)s2)CCN1S(=O)(=O)c1ccc(-c2ccccc2)s1` gave a melting point of 204 °C. With `Cn1cc(C#N)c(Nc2ccccc2[N+](=O)[O-])n1`, the melting point was found to be 172 °C.

Compound `N#Cc1cc(Cc2ccccc2)ccc1N` displayed a melting point of 68 to 69 °C. As for `CC(=O)C1=CCC2C3CCC4CC=CCC4(C)C3C(=O)CC12C` (centres undefined), the melting point lay in the range of 176 to 177 °C. Next, `COc1cc2c(cc1-c1cccnc1)-c1c(-c3cccs3)c3c(n1CC2)C(=O)N(C(C)C)CCNC3`: 227 to 229 °C; `CCCC(=O)SCC(Cc1ccccc1)C(=O)Nc1cccc(C(=O)O)c1C` (centres undefined): 136 to 141 °C. As for `c1cnc2[nH]c(CCCN3CCOCC3)nc2c1`, the figure is 101 to 103 °C. As for `Cc1ccccc1-c1c(C(=O)N(C)C)ccc2ccccc12`, the figure is 95 to 97 °C. The compound `CCN(CC)CCOc1cccc2c1c1cc(F)ccc1n2Cc1ccccc1` gave a melting point of 68 to 69 °C. Compound `O=C(c1cccc(C(F)(F)F)c1)c1cc2cccc(Br)c2o1` came in with a melting point of 75 to 78 °C. On to `C(=C\c1nc(COc2ccc(CCCCn3cnc4ccccc43)cc2)co1)/c1ccccc1`, for which the melting point was in the range of 148 to 149 °C.

`CC(C)(C)c1ccnc(NC(=O)Nc2ccc(Oc3ccc(Cl)cc3)cc2)c1`: the melting point was 198 to 199 °C. `CC/C=C\C/C=C\C/C=C\CCCCCCCC(=O)Nc1c(OC)cc(OC)cc1OC` yielded a melting point of 86 to 88 °C. Next, `Cn1cc(Oc2ccc(Cl)cc2Cl)c(=O)c(-c2cccc(C(F)(F)F)c2)c1`: 129 to 130 °C. Take `COc1ccc(CN(C)C(=O)CCCOc2ccc3c(c2)CN2CC(=O)NC2=N3)cc1`: the melting point was 256 to 258 °C. Next, `Cc1ccc(S(=O)(=O)NCC(C)NS(=O)(=O)c2ccc(C)cc2)cc1` (centres undefined): 105 to 107 °C; `Cc1ccc(S(=O)(=O)NCCOS(=O)(=O)c2ccc(C)cc2)cc1`: 89 to 90 °C. `O=C(NC1CCCCC1)NC1N=C(C2CCCCC2)c2ccccc2N(CC(=O)N2CC3CCC(CC3)C2)C1=O` (racemic) registered a melting point of 195 to 197 °C. Consider `O=c1[nH]c2ccc(Cl)cc2c2nc(-c3cccnc3)nn12`, for which the melting point was 189 to 193 °C. Next, `CO/N=C(\C(=O)OCCSc1nc2ccccc2s1)c1csc(NC=O)n1`: 172 to 173 °C; `O=C(NCCCCCCOC(=O)N1CCC(O)CC1)Oc1ccc(Oc2ccccc2)cc1`: 48 to 55 °C. In turn, `CSc1ncc2ccc(=O)[nH]c2n1` came in with a melting point of 270 to 271 °C. For `CCOC(=O)c1[nH]cc(Cc2cccc(F)c2C)c1-c1ccccc1`, the melting point was 120 to 122 °C.

With `Cc1nn(C)c(CBr)c1Oc1cc(Cl)cc(C#N)c1`, the melting point lay in the range of 76 to 78 °C. In turn, `CCN(CC)C(=O)NCCc1cccc(-c2nc(=O)c3ccccc3s2)n1` returned a melting point of 175 to 176 °C.

As to `CCOC(=O)c1ccn2ncc(-c3cccc(Cl)c3)c2n1`, the melting point lay within 126 to 129 °C. For `O=C(c1cccs1)C1CCN(Cc2ccccc2)CC1`, the melting point came to 83.9 °C. The compound `N=C(NC(=O)Nc1ccc([N+](=O)[O-])cc1)c1ccccc1` had a melting point of 188 to 191 °C. As for `O=c1c2c(Cl)cc(Cl)cc2n(Cc2ccccc2)c(=O)n1Cc1ccc(F)cc1`, the figure is 148 to 151 °C; as for `O=C(NC(Cc1ccccc1)C(=O)O)OCc1ccc(NC(=O)c2ccccc2)cc1` (centres undefined), 197 to 198 °C; as for `CCCc1c(CC)[nH]c(C(=O)OCC)c1C`, 86 to 87 °C. Compound `CCC(C)(C)NC(Nc1ccc2c(c1)OCO2)=C(C#N)S(C)(=O)=O` registered a melting point of 86 to 88 °C. Take `CN1CNC(=S)N(c2ccc(C(F)(F)F)cc2)C1`: the melting point was in the range of 163 to 165 °C.

With `COC(=O)c1cccc(C2C(C(=O)c3ccc(OC)cc3)=C(O)C(=O)N2c2nnc(C)s2)c1` (centres undefined), the melting point is 218 °C. The compound `COc1ccccc1-c1cccc([N+](=O)[O-])c1` returned a melting point of 68 to 69 °C. `CC(=O)NS(=O)(=O)c1ccc(C2=C(c3ccccc3)C(=O)C(C)(C)O2)cc1Cl` showed a melting point of 194 to 195 °C. `COC(=O)C1Oc2ccccc2Cc2ccccc2O1` returned a melting point of 107 to 110 °C. Next, `Nc1ccc(C(=O)Nc2ccc(-c3ccc(C(=O)N4CCN5CCC4CC5)o3)cc2)cc1`: 151 °C; `CCN1c2ncccc2C(C#N)=Nc2c(C)cc(C)nc21`: 154 to 155 °C.

Regarding `O=C(CC(=O)C(F)F)c1ccc(Br)s1`, the melting point lay within 83.5 to 85 °C.

For the compound `NC(=O)c1sc2nc(N3CCC(NCC(O)c4ccccn4)CC3)cc(C(F)(F)F)c2c1N` (centres undefined), the melting point lay in the range of 165 to 167 °C. `COP(=S)(NNC(C)(C)C)OC`: the melting point lay in the range of 51 to 54 °C. As for `N[C@@H](Cc1ccc(F)cc1)[C@H](O)c1ccc(F)cc1` (racemic), the figure is 66 to 67 °C; as for `CO/N=C(\C)[C@H]1CC[C@H]2[C@@H]3CCC4=CC(=O)CC[C@]4(C)[C@H]3CC[C@]12C`, 180 to 182 °C. Take `COc1ccc(-n2c(C)cc(=O)[nH]c2=S)cc1`: the melting point was in the range of 248 to 249 °C.

As to `COC(=O)c1cc(N)c2cc(Cc3ccc(F)cc3)cnc2c1O`, the melting point fell in the range of 114 to 115 °C. Turning to `O=[N+]([O-])c1ccc(Oc2c(Cl)cc(S(=O)(=O)Nc3nc(-c4cccc([N+](=O)[O-])c4)cs3)cc2Cl)cc1`, the melting point was > 250 °C. `CC1(C)Cc2sccc2C1N=CNC#N` (centres undefined) displayed a melting point of 118 to 119 °C. The compound `CCOC(=O)c1cnc2cc(CC)ccc2c1O` had a melting point of 257 to 260 °C. As to `O=C(CCl)Nc1cc(C2(Cl)C=C(C(F)(F)F)C=NC2)ccc1O` (centres undefined), the melting point was 205 °C. With `CC(=O)N1CCc2cc(CCN3CCC(c4noc5cc(F)ccc45)CC3)sc2C1`, the melting point lay within 130 to 132 °C. Next, `COCCc1nc2c(N)nc3ccccc3c2n1CC(C)(C)CNC(=O)c1ccccc1`: 103 to 125 °C; `O=C1CSC(C(=O)Nc2ccc(Cl)cc2)Cc2ccc(Cl)cc21` (centres undefined): 235 to 236 °C; `CCOC(=O)CC1(c2ccc(OC)c(OC)c2)CNC(=O)C1` (centres undefined): 60 to 62 °C. `CCOC(=O)c1sc(-c2ccc(C#N)cc2)nc1COC(C)=O` gave a melting point of 127 °C. Next, `COc1ccc(C(=O)Nc2ccccc2)c(NS(=O)(=O)c2ccc([N+](=O)[O-])cc2)c1`: 224 to 227 °C. Compound `CN(C)CCSc1nc2ccccc2n1CCc1ccccc1` came in with a melting point of 38 to 39 °C.

As for `COc1ccc(C2(CCC(=O)O)SCCCS2)cc1OC`, the melting point was in the range of 134 to 135 °C. Regarding `Cc1nc2c(N)nc3cc(OCCNC(=O)OC(C)(C)C)ccc3c2n1CC(C)C`, the melting point lay in the range of 227 to 228 °C. As for `CCOC(=O)c1c(C(C)(C)O)nc(CC)n1Cc1ccc(-c2ccccc2-c2nnn[nH]2)cc1`, the melting point lay in the range of 166 to 167 °C. On to `CCCCCCCCCCCCOc1ccc(C(=O)O)o1`, for which the melting point was 122 to 123 °C.

Take `CS(=O)(=O)NCc1cc(Br)cc2[nH]c(=O)c(=O)[nH]c12`: the melting point is > 300 °C. Next, `COCCNC(=O)C(C)Oc1ccc(Oc2ccc(C(F)(F)F)cc2)cc1` (centres undefined): 73 to 75 °C; `CCNC(=O)c1c(Br)ccc(OC)c1[Si](C)(C)C`: 200 °C. Next, `O=C(SC1CCN(C(C(=O)C2CC2)c2ccccc2F)CC1)c1ccccc1` (centres undefined): 55 to 59 °C. As for `CC(C)=CCOc1ccc(C(=O)C=Cc2c[nH]c3ccccc23)c(O)c1`, the figure is 228 to 230 °C.

Compound `Nc1c2c(nc3cc(F)ccc13)CCSC2` returned a melting point of 234 to 237 °C. For the compound `CC(C)Cn1c(CNC(=O)OC(C)(C)C)c(-c2ccccc2)c2cc(-c3nc(N)cs3)ccc2c1=O`, the melting point lay in the range of 195 to 196 °C.
